Laboratory results published in the SangsterLogP compilation.

In the case of `NC(=O)C1(N2CCCCC2)CCN(CCCC(=O)c2ccc(F)cc2)CC1`, the logP is reported as 2.68. In the case of `COc1ccc(S(N)(=O)=O)cc1C(=O)NCC1CCCN1C` (stereo unspecified), the logP is reported as 1.01. `CCN1CCCC1CNC(=O)c1cc(S(=O)(=O)CC)ccc1OC` (stereo unspecified) showed a logP of 2.05. For `C=CCN1CCCC1CNC(=O)c1cc2[nH]nnc2cc1OC` (stereo unspecified), the logP was 2.22. Work on `CCN1CCCC1CNC(=O)c1cc(S(=O)(=O)CC)c(N)cc1OC` (stereo unspecified) yielded a logP of 2.42. `COc1cccc(C(=O)NC2C[C@H]3CC[C@@H](C2)N3Cc2ccccc2)c1OC` (stereo partly specified) gave a logP of 3.07. In the case of `COc1cc(C(=O)NCc2ccc(OCCN(C)C)cc2)cc(OC)c1OC`, the logP is reported as 2.04. With `O=c1[nH]c2ccccc2n1C1CCN(CCCC(c2ccc(F)cc2)c2ccc(F)cc2)CC1` the logP was 6.06. Work on `O=C(NCCN1CCC(n2c(=O)[nH]c3cc(Cl)ccc32)CC1)c1ccc(F)cc1` yielded a logP of 4.02. For `OCCN1CCN(CCCN2c3ccccc3Sc3ccc(C(F)(F)F)cc32)CC1`, the logP was 4.55. With `COc1ccc(S(N)(=O)=O)cc1C(=O)NCC1CCCN1Cc1ccc(F)cc1` (stereo unspecified) the logP was 2.08.
